Test results from patent publication US9981923B2, “1,2,3 Triazole antifungal agents and preparation thereof” (COUNCIL OF SCIENTIFIC & INDUSTRIAL RESEARCH, priority 2014, dated 2018).
Converted amounts (≈) assume the structure as drawn. Read-outs that look alike come from different tables or passages of the source.

Key:
Assay in all cases: Antifungal susceptibility by microbroth dilution (CLSI)
Type in all cases: cell-based
[1] = test system: Cryptococcus neoformans ATCC 34664
Experimental: (§1) The synthesized compounds were evaluated for antifungal susceptibility by microbroth dilution method according to the recommendations of the Clinical Laboratory Standards Institute (CLSI 2008). Briefly, appropriate amount of compounds were dissolved in dimethyl sulfoxide to get 100× final strength. The stock was then diluted 1:50 in RPMI/YPG medium and 200 μl from this was added to the first row of a 96-well microtitre plate. The compounds were serially diluted two fold in successive wells to get a range of 1-128 μg/ml. Fungal yeast cells (˜2×10^3 cfu/mL), freshly grown in YPG broth in logarithmic phase, were suspended in the medium and inoculated (100 μl) in the wells of the plate. For filamentous fungi, 2×10^4 spores/mL were added. The microtitre plate was incubated for 48 h, and the absorbance was measured at 600 nm by using microtitre plate reader to assess cell growth.

[2] = test system: Candida albicans ATCC 24433
Experimental: as §1

[3] = test system: Aspergillus niger ATCC 10578
Experimental: as §1

[4] = test system: Aspergillus fumigatus MCC 1046
Experimental: as §1

C. tropicalis ATCC 750 = details: Candida tropicalis, ATCC750; Table 2
Experimental: as §1

[5] = test system: Candida glabrata NCYC 388; details: Table 1; 48 h, >90% inhibition of growth
Experimental: as §1

[6] = Cryptococcus neoformans, ATCC34664, Table 2, read-out: MIC values
[7] = Candida albicans, ATCC24433, Table 2, read-out: MIC values
[8] = Aspergillus niger, ATCC10578, Table 2, read-out: MIC values
[9] = Aspergillus fumigatus, MCC1046, Table 2, read-out: MIC values
[10] = Table 1, 48 h, >90% inhibition of growth

Row | MIC [1, 6] [µg/mL] | MIC [2, 7] [µg/mL] | MIC [3, 8] [µg/mL] | MIC [4, 9] [µg/mL] | MIC (C. tropicalis ATCC 750) [µg/mL] | SMILES | MIC [1, 10] [µg/mL] | MIC ([2]; Table 1, 48 h, >90% inhibition of growth, range 1-128 μg/ml) [µg/mL] | MIC [3, 10] [µg/mL] | MIC [4, 10] [µg/mL] | MIC [5] [µg/mL]
1 | 128 (≈ 368 µM) | 8 (≈ 23 µM) | 128 (≈ 368 µM) | 64 (≈ 184 µM) | 128 (≈ 368 µM) | CC(O)(Cc1cn(-c2ccc(F)cc2O)nn1)c1ccc(Cl)cc1 (stereo not drawn) [Compound 3ec, 2-(4-(2-(4-Chlorophenyl)-2-hydroxypropyl)-1H-1,2,3-triazol-1-yl)-5-fluorophenol] | – | – | – | – | –
2 | 128 (≈ 388 µM) | 8 (≈ 24.3 µM) | 128 (≈ 388 µM) | 64 (≈ 194 µM) | 256 (≈ 776 µM) | CC(O)(Cc1cn(-c2ccccc2O)nn1)c1ccc(Cl)cc1 (stereo not drawn) [Compound 3ed, 2-(4-(2-(4-Chlorophenyl)-2-hydroxypropyl)-1H-1,2,3-triazol-1-yl)phenol] | – | – | – | – | –
3 | 128 (≈ 342 µM) | 32 (≈ 85.5 µM) | 128 (≈ 342 µM) | 128 (≈ 342 µM) | 256 (≈ 684 µM) | CC(O)(Cc1cn(-c2ccccc2O)nn1)c1ccc(Br)cc1 (stereo not drawn) [Compound 3fd, 2-(4-(2-(4-Bromophenyl)-2-hydroxypropyl)-1H-1,2,3-triazol-1-yl)phenol] | – | – | – | – | –
4 | 256 (≈ 817 µM) | 64 (≈ 204 µM) | 256 (≈ 817 µM) | 256 (≈ 817 µM) | > 256 | CC(O)(Cc1cn(-c2ccccc2O)nn1)c1ccc(F)cc1 (stereo not drawn) [Compound 3dd, 2-(4-(2-(4-Fluorophenyl)-2-hydroxypropyl)-1H-1,2,3-triazol-1-yl)phenol] | – | – | – | – | –

Continued, molecule first:

Row | SMILES | MIC [1, 6] [µg/mL] | MIC [2, 7] [µg/mL] | MIC [3, 8] [µg/mL] | MIC [4, 9] [µg/mL] | MIC (C. tropicalis ATCC 750) [µg/mL] | MIC [1, 10] [µg/mL] | MIC ([2]; Table 1, 48 h, >90% inhibition of growth, range 1-128 μg/ml) [µg/mL] | MIC [3, 10] [µg/mL] | MIC [4, 10] [µg/mL] | MIC [5] [µg/mL]
5 | Oc1cc(F)ccc1-n1cc(CC(O)c2ccc(C(F)(F)F)cc2F)nn1 (stereo not drawn) [Compound 3cc, 5-Fluoro-2-(4-(2-(2-fluoro-4-(trifluoromethyl)phenyl)-2-hydroxyethyl)-1H-1,2,3-triazol-1-yl)phenol] | > 256 | 128 (≈ 332 µM) | > 256 | > 256 | > 256 | – | – | – | – | –
6 | CC(O)(Cc1cn(-c2cc(Cl)ccc2O)nn1)c1ccc(Br)cc1 (stereo not drawn) [Compound 3fa, 2-(4-(2-(4-Bromophenyl)-2-hydroxypropyl)-1H-1,2,3-triazol-1-yl)-4-chlorophenol] | 32 (≈ 78.3 µM) | 4 (≈ 9.79 µM) | 32 (≈ 78.3 µM) | 16 (≈ 39.2 µM) | 64 (≈ 157 µM) | – | – | – | – | –
7 | CC(O)(Cc1cn(-c2ccccc2O)nn1)c1ccc(Cl)cc1Cl (stereo not drawn) [Compound 3bd, 2-(4-(2-(2,4-Dichlorophenyl)-2-hydroxypropyl)-1H-1,2,3-triazol-1-yl)phenol] | 32 (≈ 87.9 µM) | 8 (≈ 22 µM) | 32 (≈ 87.9 µM) | 16 (≈ 43.9 µM) | 64 (≈ 176 µM) | – | – | – | – | –
8 | Oc1cc(Cl)ccc1-n1cc(CC(O)c2ccc(C(F)(F)F)cc2F)nn1 (stereo not drawn) [Compound 3cb, 5-Chloro-2-(4-(2-(2-fluoro-4-(trifluoromethyl)phenyl)-2-hydroxyethyl)-1H-1,2,3-triazol-1-yl)phenol] | > 256 | 16 (≈ 39.8 µM) | > 256 | > 256 | > 256 | – | – | – | – | –
9 | CC(O)(Cc1cn(-c2ccc(F)cc2O)nn1)c1ccc(F)cc1 (stereo not drawn) [Compound 3dc, 5-Fluoro-2-(4-(2-(4-fluorophenyl)-2-hydroxypropyl)-1H-1,2,3-triazol-1-yl)phenol] | 256 (≈ 773 µM) | 64 (≈ 193 µM) | 256 (≈ 773 µM) | 128 (≈ 386 µM) | > 256 | – | – | – | – | –
10 | CC(O)(Cc1cn(-c2ccccc2O)nn1)c1ccc(F)cc1F (stereo not drawn) [Compound 3ad, 2-(4-(2-(2,4-Difluorophenyl)-2-hydroxypropyl)-1H-1,2,3-triazol-1-yl)phenol] | 128 (≈ 386 µM) | 8 (≈ 24.1 µM) | 128 (≈ 386 µM) | 128 (≈ 386 µM) | 256 (≈ 773 µM) | – | – | – | – | –
11 | CC(O)(Cc1cn(-c2cc(Cl)ccc2O)nn1)c1ccc(Cl)cc1Cl (stereo not drawn) [Compound 3ba, 4-Chloro-2-(4-(2-(2,4-dichlorophenyl)-2-hydroxypropyl)-1H-1,2,3-triazol-1-yl)phenol] | > 256 | 32 (≈ 80.3 µM) | > 256 | > 256 | > 256 | – | – | – | – | –
12 | CCC(O)(c1ccccc1)c1cn(-c2cc(Cl)ccc2O)nn1 (stereo not drawn) [Compound 2da] | – | – | – | – | – | >128 | 128 (≈ 388 µM) | 64 (≈ 194 µM) | 128 (≈ 388 µM) | 128 (≈ 388 µM)
